This is an account of results in patent publication US9943500B2, “Methods of treating topical microbial infections” (LUODA PHARMA PTY LIMITED, priority 2013, dated 2018).

≈ marks a conversion by molar mass, not a printed value. Read-outs that look alike come from different tables or passages of the source.

The test system of series [1] is methicillin sensitive and methicillin-resistant staphylococci. The series is described as follows: Minimum inhibitory concentration assay, 42 Staphylococcus isolates (Example 1). It counts as cell-based. The protocol: Forty-two isolates of Staphylococcus of varying species and strain type were collected from isolate collections. Biochemical testing including coagulase, latex agglutination testing for protein A, Vogues-Proskauer tests and resistance to polymyxin B were used to identify the species of Staphylococcus. All isolates were also screened for resistance to various antimicrobials commonly used for the treatment of skin infections. This was performed using the disk diffusion method and resistance standards as outlined by the CLSI. The following antimicrobials were used: amoxicillin-clavulanic acid (30 μg), cephalothin (30 μg), clindamycin (2 μg), enrofloxacin (5 μg), erythromycin (15 μg), gentamicin (10 μg), imipenem (10 μg), oxacillin (1 μg), penicillin G (10 units), tetracycline (30 μg), 1:19 trimethoprim-sulfamethoxazole (25 μg) and vancomycin (30 μg).
Minimum inhibitory concentration tests were performed according to CLSI Standards (CLSI 2012). 90 μL of one of the test compound solutions, or ampicillin, was added to the end column of a 96 well plate that contained 90 μL of CAMHB in each well. The solutions were then serially diluted across the row, leaving 2 columns for positive and negative controls (FIG. 2). A bacterial suspension was prepared by adding fresh colonies obtained from an overnight culture on Sheep Blood Agar (SBA) to a 9.1 g/L saline solution. This suspension was adjusted to a concentration of between 4×10^8 and 5×10^8 CFU/mL. […] 1 mL of this suspension was added to 9 mL of saline before being added to all wells, excluding the negative control wells, in 10 μL volumes giving a final concentration of between 4×10^5 and 5×10^5 CFU/mL in each well. The tests were then incubated for 24 hours at 37° C. and then assessed both visually and using OD readings from a microplate reader at a wavelength of 600 nm. These tests were performed in duplicate but repeated if discrepancies were observed.
The minimum inhibitory concentration (MIC) was determined to be the lowest concentration of antibiotic that prevented growth of bacteria both visually and using OD readings. Direct statistical comparisons between the test compounds and ampicillin could not be performed in light of confidential information restrictions, such as restrictions on disclosure of information relating to the compound structure, such as molecular weight. Instead, MIC values were collated and used to determine the lowest concentration of each compound that was effective against 50% and 90% of isolates, referred to as the MIC50 and MIC90 respectively. These values as well as the range of MIC values were then used for direct comparisons between test compounds and for general comparisons with ampicillin.

Series [2] relates to 51 Australian bovine mastitis isolates, primarily S. aureus, S. agalactiae and S. uberis. Description: Minimum inhibitory concentration assay, bovine mastitis isolates (Example 3). The conditions noted are these: all 51 isolates. The series is classed as cell-based. The source says:
Fifty-one dairy bovine mastitis isolates, encompassing a variety of bacterial species, were isolated from milk samples collected from dairy farms in rural South Australia by the University of Adelaide Ambulatory Clinic. Cellular morphology observed from Gram stains and catalase testing was used to differentiate Staphylococcus, Streptococcus and Corynebacterium species from Gram-negative species. Further biochemical testing including coagulase, Lancefield grouping, esculin hydrolysis and CAMP tests were used to identify the isolates to species level. Where biochemical test results were not definitive in identifying species, amplification and sequencing of the 16S ribosomal RNA gene was used to confirm the identity of the isolates.
Minimum inhibitory concentration tests were performed in the manner outlined by the CLSI (CLSI 2012). Test compounds were dispensed into a 96-well microtitre tray containing 90 μl of CAMHB in 90 μl volumes and serial diluted to obtain a concentration gradient ranging from 128 μg/ml to 0.25 μg/ml (see FIG. 24). For Streptococcus species, CAMHB was replaced with a CAMHB supplement with 4% lysed-sheep blood (4% LSB:CAMHB). 4% LSB:CAMHB was prepared by mixing 5 ml sheep blood to 5 ml milliQ water, and repeated freezing at −20° C. and thawing, followed by centrifuged for 20 min at 7000 rpm. 7 ml of the supernatant was removed and added to 93 mL of CAMB.
Bacterial suspensions were prepared by emulsifying fresh colonies obtained from an overnight culture on Sheep Blood Agar (SBA) in 4 mls of 9.1 g/l physiological saline to an optical density read at 600 nm (OD600 nm) between 1.00 and 1.20. Standardised bacterial suspensions were diluted 1:10 in physiological saline and dispensed into all wells, excluding the negative control wells, in 10 μL volumes giving a final concentration of between 4×10^5 and 5×10^5 CFU/mL in each well. 96-well microtitre trays were incubated for 24 hours at 37° C. in 5% CO2 and then assessed both visually and using OD readings from a microplate reader at a wavelength of 600 nm. These tests were performed in duplicate and repeated if discrepancies in MIC values were observed between replicates.
The minimum inhibitory concentration (MIC) was determined to be the lowest concentration of antibiotic that prevented growth of bacteria both visually and using OD readings. MIC values were collated and used to determine the lowest concentration of each compound effective against 50% and 90% of isolates, known as the MIC50 and MIC90 respectively. These values as well as the range of MIC values were then used for direct comparisons between test compounds and for general comparisons with ampicillin.

A further series has as its system MRSA 9. Description: Macrodilution time-kill assay (viable counts). The conditions noted are these: 24 hours.
Series [3] relates to ATCC 49775 reference strain. Description: Microdilution time-kill assay (optical density). The conditions noted are these: 48 hour period; one, four and eight times the MIC. In general terms: Broth dilution looks for growth in wells or tubes with falling amounts of substance.
Description: Time-kill assays were performed according to the M26-A guidelines of the CLSI, with modifications. The test compounds and ampicillin were serial diluted in CAMHB across the rows of a 96 well plate and a bacterial suspension was prepared and added in the same manner as the MIC testing. The 96 well plates were then incubated at 37° C. for 48 hours being removed at specific time points and OD for the positive control wells as well as one, four and eight times the MIC of the compound specific to the strain being tested were assessed using a spectrophotometer at a wavelength of 600 nm. The time points assessed were 0, 1, 2, 4, 8, 12, 24 and 48 hours after the addition of the bacterial suspension to the wells. Each test compound was tested in triplicate while ampicillin was tested in duplicate and this test was independently repeated. […] One strain from each of the categories of Staphylococcus in the isolate collection (methicillin-sensitive, methicillin resistant and coagulase negative) were selected as well as the ATCC reference strain for comparison. These strains were strains MSS 1, MSS 11, MRSA 9 and the ATCC 49775 reference strain.
The subject of series [4] is ATCC 49775 reference strain. Description: Macrodilution time-kill assay (viable counts). The conditions noted are these: 24 hours.
Description: (§1) Due to the detection limit of the OD measurements, the time-kill assays were also performed in macrodilution. In 15 mL tubes, 9 mL volumes of the test compounds in CAMHB were prepared at one, four and eight times the MIC concentration and 9 mL volumes of ampicillin were prepared in CAMHB at one and four times the MIC. 1 mL of a 4 to 5×10^6 bacterial suspension (as prepared for MIC testing) was added to each of the tubes as well as a growth control tube containing only 9 mL of CAMHB. These tubes were incubated at 37° C. in an orbital shaker rotating at 100 rpm for 24 hours. At 0, 1, 4, 8, 12 and 24 hours after addition of the bacteria, 100 μL samples were removed from each tube and serial diluted in 9.1 g/L saline solution. The dilutions were then plated in duplicate onto plate count agar and incubated for 24 hours at 37° C. After incubation, viable counts were obtained from the number of colonies visible on the agar and these were used to calculate the number of CFU/mL at each time point. For the macrodilution time-kill analysis, only the ATCC 49775 reference strain and MRSA 9 were assessed in order to further investigate the antibacterial activity against methicillin-resistant strains. These macrodilution time-kill assays were independently repeated and bactericidal activity was defined as a ≥3 log decrease in the number of CFU/mL.
In series [5] the test system is methicillin-sensitive and methicillin-resistant strains of Staphylococcus. The series is described as follows: Minimum bactericidal concentration determination, Staphylococcus isolates (Example 1). The conditions noted are these: for bactericidal activity (MBC testing): lower concentrations; for strain type for which bactericidal activity was more consistent: methicillin-sensitive versus methicillin-resistant strains.
Description: Following determination of the MIC using the 96 well MIC plate, a variation of the drop plate method was used to determine minimum bactericidal concentration (MBC) for each of the test compounds. These were analysed using samples taken from the MIC plate following incubation. […] Each concentration was pipetted in duplicate with duplicates being pipetted on an inner ring of drops. The plates were incubated at 37° C. overnight and assessed the following day for growth. The MBC was defined as the concentration at which 99.9% of colonies were eradicated, which was visually assessed by a lack of growth on the agar where the drop was placed.

For series [6] the following is noted: dogs; cited from earlier work.
The conditions of series [7]: cited from earlier work.

Description for MRSA 9: as §1

On to `CC[C@@]1([C@@H]2O[C@@H]([C@H]3O[C@@](O)(CO)[C@H](C)C[C@@H]3C)C[C@@H]2C)CC[C@H]([C@]2(C)CC[C@]3(C[C@H](O)[C@@H](C)[C@@H]([C@@H](C)[C@@H](OC)[C@H](C)C(=O)O)O3)O2)O1` [LP 9666, Monensin], for which, in series [1], the “MIC50 and MIC90 values compared with ampicillin” value is on record as “considerably lower than ampicillin”. In addition, in series [2] (read-out: MIC90), the MIC90 (commonly the lowest concentration that inhibits either 90% of growth or 90% of the strains tested, depending on the study) was found to be 128 µg/mL (≈ 191 µM).

As to `CO[C@@H]1[C@@H](OC)[C@H](C)[C@@](O)(CC(=O)O)O[C@H]1[C@H](C)[C@H]1O[C@@]2(CC[C@@](C)([C@H]3CC[C@@](C)([C@@H]4O[C@@H]([C@H]5O[C@](C)(O)[C@H](C)C[C@@H]5C)C[C@@H]4O[C@@H]4C[C@H](OC)[C@@H](OC)[C@H](C)O4)O3)O2)C[C@H](O)[C@H]1C` [LP 6315, Maduramicin], in the series with MRSA 9 (four times the MIC), the decrease in colonies is more than 3 log10. Moreover, the “growth (optical density) compared to growth control” value in series [3] was “prevented the growth”. Moreover, the “bactericidal or bacteriostatic (time-kill)” value in series [4] (most concentrations, ATCC 49775 and MRSA 9) is “bacteriostatic”. Besides, the “MIC50 and MIC90 values compared with ampicillin” value in series [1] is “considerably lower than ampicillin”. In addition, the MIC90 in series [2] (read-out: MIC90) was 4 µg/mL (≈ 4.36 µM). In series [5], the “bactericidal activity (MBC testing)” value is recorded as “some bactericidal activity in lower concentrations” and the “strain type for which bactericidal activity was more consistent” value (“strain type” for short) is listed as “more consistently for methicillin-sensitive strains”. Also, in series [5] (methicillin-resistant isolates), the “MBC50 rank among test compounds” value was “lowest MBC50 values”.

With `CC[C@@H](C(=O)O)[C@@H]1O[C@@H]([C@@H](C)[C@H](O)[C@H](C)C(=O)[C@H](CC)[C@H]2O[C@]3(C=C[C@@H](O)[C@]4(CC[C@@](C)([C@H]5CC[C@](O)(CC)[C@H](C)O5)O4)O3)[C@H](C)C[C@@H]2C)[C@@H](C)C[C@@H]1C` [LP 4525, Narasin], in series [2], the MIC50 – broadly, an inhibitory concentration at the 50% level, which refers to growth in some studies and to a panel of isolates in others – is 0.25 µg/mL (≈ 0.327 µM); the MIC90 worked out at 1 µg/mL (≈ 1.31 µM).

On to Narasin [LP 4525], for which, in series [1], the “MIC50 and MIC90 values compared with ampicillin” value is “considerably lower than ampicillin”. Further, in series [5], the “bactericidal activity (MBC testing)” value is “some bactericidal activity in lower concentrations” and the “strain type” value is on record as “more consistently for methicillin-sensitive strains”.

As to `CC[C@@H](C(=O)[C@@H](C)[C@@H](O)[C@H](C)[C@@H]1O[C@@H]([C@@H](CC)C(=O)O)CC[C@@H]1C)[C@H]1O[C@]2(C=C[C@@H](O)[C@]3(CC[C@@](C)([C@H]4CC[C@](O)(CC)[C@H](C)O4)O3)O2)[C@H](C)C[C@@H]1C` [LP 1088, Salinomycin], in series [6], the “daily intake leading to neurotoxic effects (myelin loss, axonal degeneration)” value was “more than 500 μg/kg”. Also, the “toxicity after accidental exposure” value in series [7] (accidental inhalation and swallowing of about 1 mg/kg, human) is “severe acute and chronic salinomycin toxicity”. Moreover, the “acceptable daily intake (ADI)” value in series [7] (humans, European Food Safety Authority risk assessment) was 5 µg/kg. For the same compound, the “MIC50 and MIC90 values compared with ampicillin” value in series [1] is “considerably lower than ampicillin”. In addition, the MIC90 in series [2] (read-out: MIC90) stood at 2 µg/mL (≈ 2.66 µM). In series [5], the “bactericidal activity (MBC testing)” value is given as “some bactericidal activity in lower concentrations” and the “strain type” value is “more consistently for methicillin-sensitive strains”.

Regarding `CC1(C)S[C@@H]2[C@H](NC(=O)[C@H](N)c3ccccc3)C(=O)N2[C@H]1C(=O)O` [ampicillin], the “decrease in the number of viable bacteria” value (in the series on MRSA 9 (all concentrations tested); in series [4] (all concentrations tested)) was more than 3 log10 each time.
